Data from ChEMBL document CHEMBL4483862, “Open-source discovery of chemical leads for next-generation chemoprotective antimalarials” (2018).

Tested on: Plasmodium berghei
Assay: Luciferase/luciferin-expressing antifolate-resistant parasites were used to infect a culture of HepG2 cells that were pre-incubated with compounds. Infected hepatocytes emit light due to the luciferase reaction. Assay results are presented as the percent inhibition of light emission compared to control. […]
Format: functional
Conditions: sporozoite; for IC90: read-out: LUCIFERASE INFECTION ASSAY - IC90
[1] = read-out: LUCIFERASE INFECTION ASSAY - IC50

SMILES	IC50 [1]	IC90	further results
CC(=O)c1sc(-c2ccc(OCC(=O)Nc3ccc(S(=O)(=O)N4CCCC4)cc3)cc2)nc1C	> 10 µM	> 10 µM	–
COc1cc(NC(=O)N2Cc3cnc(Nc4ccc(OCc5ccccc5)cc4)nc3C2)cc(OC)c1OC	> 6.25 µM	> 6.25 µM	–
Cc1cc(C2=NN/C(=N/C3CC3)SC2)c(C)n1-c1cccc(S(=O)(=O)N2CCOCC2)c1	–	> 10 µM	IC50 (PBLUC_HILL_SLOPE 11.7, PBLUC_R_SQUARED 0.69, read-out: LUCIFERASE INFECTION ASSAY - IC50): 9.28 µM
Cc1cc(C)c(S(=O)(=O)N(Cc2cccc3ccccc23)c2c(C)n(C)n(-c3ccccc3)c2=O)c(C)c1	–	9.71 µM	IC50 (HEPG2TOX_HILL_SLOPE 7.62, HEPG2TOX_R_SQUARED 0.586, PBLUC_HILL_SLOPE 20.2, PBLUC_R_SQUARED 0.47, read-out: LUCIFERASE INFECTION ASSAY - IC50): 8.71 µM
CC(N)c1csc(NC(=O)c2cccnc2Oc2ccccc2)n1 (stereo not drawn)	3.09 µM	5.22 µM	–
Cc1ccc(N(Cc2ccccc2)C(=O)C2CCN(S(=O)(=O)c3c(Cl)cccc3Cl)CC2)cc1	> 10 µM	> 10 µM	–
CC(=O)c1cccc(-c2cnc3cnc(-c4ccc(CNc5ccccc5)cc4)cn23)c1	–	> 7.89 µM	IC50 (FFLUC_HILL_SLOPE 9.2, FFLUC_R_SQUARED 0.0159, PBLUC_HILL_SLOPE 3.04, PBLUC_R_SQUARED 0.57, read-out: LUCIFERASE INFECTION ASSAY - IC50): 4.89 µM
CCOc1ccc(-c2n[nH]c(C)c2Oc2ccccc2Br)c(O)c1	–	> 8.48 µM	IC50 (FFLUC_HILL_SLOPE 1.83, FFLUC_R_SQUARED 0.626, read-out: LUCIFERASE INFECTION ASSAY - IC50): > 8.48 µM
Cc1cc(Nc2nc3ccccc3nc2N2CCN(/C=C/c3ccccc3)CC2)n(-c2ccccc2)n1	> 10 µM	> 10 µM	–
O=C1/C(=C/c2cc(Cl)ccc2O)NC(=S)N1Cc1ccccc1Cl	–	1.37 µM	IC50 (HEPG2TOX_HILL_SLOPE 1.93, HEPG2TOX_R_SQUARED 0.989, PBLUC_HILL_SLOPE 8.09, PBLUC_R_SQUARED 0.926, read-out: LUCIFERASE INFECTION ASSAY - IC50): 1.05 µM
CC1S/C(=C\c2nc3ccccc3s2)NC1=O (stereo not drawn)	–	> 10 µM	IC50 (HEPG2TOX_HILL_SLOPE 1.83, HEPG2TOX_R_SQUARED 0.983, PBLUC_HILL_SLOPE 1.76, PBLUC_R_SQUARED 0.572, read-out: LUCIFERASE INFECTION ASSAY - IC50): 3.43 µM
CCCCCCCOc1ccc(C(=O)CCC(=O)O)cc1	> 11.3 µM	> 11.3 µM	–
CCN(CC)Cc1ccc(CNC(=O)c2oc3ccccc3c2CSc2nnc[nH]2)cc1	2.48 µM	> 10 µM	–
COC(=O)c1ccc(C(=O)OC)c(N2C(=O)C=CC2=O)c1	–	> 11.4 µM	IC50 (FFLUC_HILL_SLOPE 12.8, FFLUC_R_SQUARED 0.0109, PBLUC_HILL_SLOPE 0.51, PBLUC_R_SQUARED 0.565, read-out: LUCIFERASE INFECTION ASSAY - IC50): 0.503 µM
COc1ccc(OC)c(NC(=O)C2(C)CCN2Cc2ccc(C(C)C)cc2)c1 (stereo not drawn)	> 8.63 µM	> 8.63 µM	–
CNC(=O)c1nnsc1[S+]([O-])c1ccc(Cl)cc1 (stereo not drawn)	–	> 10.9 µM	IC50 (FFLUC_HILL_SLOPE 1.33, FFLUC_R_SQUARED 0.248, HEPG2TOX_HILL_SLOPE 10.3, HEPG2TOX_R_SQUARED 0.738, read-out: LUCIFERASE INFECTION ASSAY - IC50): > 10.9 µM
Cc1cc(C(=N)NOC(=O)C(C)(C)C)cc(C(=N)NOC(=O)C(C)(C)C)c1	> 8.77 µM	> 8.77 µM	–
Cc1ccnc(SCc2cc(=O)n3nc(C)c(-c4ccc(F)cc4)c3[nH]2)n1	–	> 8.65 µM	IC50 (FFLUC_HILL_SLOPE 7.05, FFLUC_R_SQUARED 0.398, PBLUC_HILL_SLOPE 2.1, PBLUC_R_SQUARED 0.785, read-out: LUCIFERASE INFECTION ASSAY - IC50): > 8.65 µM
O=C(CC1Sc2ccccc2NC1=O)NCCCn1ccc2ccccc21 (stereo not drawn)	–	3.47 µM	IC50 (HEPG2TOX_HILL_SLOPE 0.0908, HEPG2TOX_R_SQUARED 0.322, PBLUC_HILL_SLOPE 2.29, PBLUC_R_SQUARED 0.881, read-out: LUCIFERASE INFECTION ASSAY - IC50): 1.33 µM
Cc1ccc(Oc2ccc(S(=O)(=O)NCCN(C)C)cc2)cc1	> 10 µM	> 10 µM	–
COc1cc(C2NCC(c3ccccc3Cl)c3c2[nH]c2ccccc32)ccc1OCc1cccc(C(F)(F)F)c1 (stereo not drawn)	–	> 10 µM	IC50 (FFLUC_HILL_SLOPE 97, FFLUC_R_SQUARED 0.0371, HEPG2TOX_HILL_SLOPE 1.2, HEPG2TOX_R_SQUARED 0.293, PBLUC_HILL_SLOPE 8.25, PBLUC_R_SQUARED 0.22, read-out: LUCIFERASE INFECTION ASSAY - IC50): 8.46 µM
Cc1nc(SCc2ccc(C(F)(F)F)cc2)n(C)c(=O)c1Oc1ccc(F)cc1	> 7.78 µM	> 7.78 µM	–
Cc1cccc(NC(=O)CN2CCN(C(=O)c3csc(-c4ccc(C(C)C)cc4)n3)CC2)c1C	–	3.81 µM	IC50 (PBLUC_HILL_SLOPE 12.3, PBLUC_R_SQUARED 0.609, read-out: LUCIFERASE INFECTION ASSAY - IC50): 3.19 µM
COc1ccccc1CNC(=O)NC(C)c1ccc(Cl)cc1Cl (stereo not drawn)	> 10 µM	> 10 µM	–
O=C(NNc1cc(C(F)(F)F)nc2ccccc12)Nc1ccc(Cl)cc1	> 8.67 µM	> 8.67 µM	–

SMILES	IC50 [1]	IC90	further results
CN(CC(=O)Nc1nc(-c2c[nH]c3ccccc23)cs1)C1CCCCC1	> 10 µM	> 10 µM	–
O=C(NC(=O)c1cnn2c(C(F)(F)F)cc(C(F)(F)F)nc12)Nc1ccc(Cl)cc1	> 7.31 µM	> 7.31 µM	–
Cc1ccc(/C(C#N)=C/c2ccc(N(C)C)cc2)cc1	–	5.07 µM	IC50 (HEPG2TOX_HILL_SLOPE 1.36, HEPG2TOX_R_SQUARED 0.894, PBLUC_HILL_SLOPE 0.698, PBLUC_R_SQUARED 0.911, read-out: LUCIFERASE INFECTION ASSAY - IC50): 0.218 µM
Cc1ccc(C(=O)NC(c2ccccc2)c2ccccc2)s1	> 10 µM	> 10 µM	–
Cc1c(Cl)cccc1NC(=O)CNC(=O)CN1CCc2ccccc2C1	> 10 µM	> 10 µM	–
CN1/C(=C\C(=O)CSc2nnc3c(n2)[nH]c2ccccc23)C(C)(C)c2ccccc21	–	> 10 µM	IC50 (HEPG2TOX_HILL_SLOPE 7.55, HEPG2TOX_R_SQUARED 0.316, read-out: LUCIFERASE INFECTION ASSAY - IC50): > 10 µM
COc1ccc(NCC2(c3ccnc(-c4ccccc4Cl)c3)CC2)cc1	–	8.59 µM	IC50 (HEPG2TOX_HILL_SLOPE 7.95, HEPG2TOX_R_SQUARED 0.722, PBLUC_HILL_SLOPE 6.14, PBLUC_R_SQUARED 0.58, read-out: LUCIFERASE INFECTION ASSAY - IC50): 6.01 µM
Cc1nn(-c2ccccc2)c(N2CCCC2)c1/C=N/Nc1ccc(S(N)(=O)=O)cc1[N+](=O)[O-]	9.05 µM	> 10 µM	–
Cn1c(NCC2CC2)nc2cnc(-c3cccc(Oc4ccccc4)c3)cc21	5.67 µM	> 10 µM	–
Cc1ccc(Cn2nc(C)c3cc(C(=O)OCC(=O)c4cc(C)n(CC5CCCO5)c4C)sc32)cc1 (stereo not drawn)	> 10 µM	> 10 µM	–
CC(C)c1ccc(NC(=O)Nc2nc(C(N)C3CCCCC3)cs2)cc1 (stereo not drawn)	–	> 8.86 µM	IC50 (PBLUC_HILL_SLOPE 7.05, PBLUC_R_SQUARED 0.602, read-out: LUCIFERASE INFECTION ASSAY - IC50): 7.75 µM
c1ccc(-c2ncc(CSc3ncnc4sccc34)s2)cc1	> 10 µM	> 10 µM	–
O=C(Nc1ccc(SC(F)(F)F)cc1)Nc1ccc(Oc2cccc(C(F)(F)F)c2)nc1	–	0.806 µM	IC50 (HEPG2TOX_HILL_SLOPE 4.03, HEPG2TOX_R_SQUARED 0.946, PBLUC_HILL_SLOPE 9.59, PBLUC_R_SQUARED 0.631, read-out: LUCIFERASE INFECTION ASSAY - IC50): 0.641 µM
CC(C)(C)c1ccc(C2NCC(c3ccc(Cl)cc3Cl)c3c2[nH]c2ccccc32)cc1 (stereo not drawn)	–	4.09 µM	IC50 (FFLUC_HILL_SLOPE 4.79, FFLUC_R_SQUARED 0.608, HEPG2TOX_HILL_SLOPE 0.722, HEPG2TOX_R_SQUARED 0.602, PBLUC_HILL_SLOPE 10.9, PBLUC_R_SQUARED 0.683, read-out: LUCIFERASE INFECTION ASSAY - IC50): 3.34 µM
O=C(NC1CCCC1)c1ccc(-c2cn3c(-c4ccc(C(=O)NC5CC5)cc4)cnc3cn2)cc1	–	> 7.09 µM	IC50 (PBLUC_HILL_SLOPE 2.95, PBLUC_R_SQUARED 0.52, read-out: LUCIFERASE INFECTION ASSAY - IC50): 4.87 µM
O=C(Nc1ccc(OC(F)(F)F)cc1)Nc1ccc(Sc2ccccc2)nc1Sc1ccccc1	–	1.18 µM	IC50 (HEPG2TOX_HILL_SLOPE 8.48, HEPG2TOX_R_SQUARED 0.476, PBLUC_HILL_SLOPE 1.76, PBLUC_R_SQUARED 0.832, read-out: LUCIFERASE INFECTION ASSAY - IC50): 0.339 µM
COc1cccc(-c2ccnc3n[nH]c(-c4cccc(C(F)(F)F)c4)c23)c1	> 10 µM	> 10 µM	–
Clc1nc2ccccc2cc1/C=N/C1CCCCC1	> 10 µM	> 10 µM	–
O=C1C=CC(=O)N1c1ccc(Cl)cc1Br	–	8.68 µM	IC50 (FFLUC_HILL_SLOPE 1.45, FFLUC_R_SQUARED 0.668, PBLUC_HILL_SLOPE 3.96, PBLUC_R_SQUARED 0.503, read-out: LUCIFERASE INFECTION ASSAY - IC50): 4.99 µM
Cc1nn(C(=O)c2c(Cl)cccc2Cl)c(C)c1Cc1c(Cl)cccc1Cl	–	> 7.71 µM	IC50 (PBLUC_HILL_SLOPE 3.14, PBLUC_R_SQUARED 0.492, read-out: LUCIFERASE INFECTION ASSAY - IC50): 5.28 µM
Cc1cc(NC(=O)CCNC(C)c2ccc(CC(C)C)cc2)no1 (stereo not drawn)	> 10 µM	> 10 µM	–
CC(C)c1cccc(NC(=O)COc2ccc(S(N)(=O)=O)cc2[N+](=O)[O-])c1	> 10 µM	> 10 µM	–
COc1cccc(-c2cc(=O)n3c(nc4ccccc43)[nH]2)c1	> 11.3 µM	> 11.3 µM	–
Cc1[nH]nc2ccnc(-c3cccc(OC(F)(F)F)c3)c12	> 10 µM	> 10 µM	–
